What all share (assay type): cell-based
For assay [1], the system named is NCI-H2030 [G12C]. Kind of assay: Protac activity at E3 ubiquitin ligase/KRAS G12C mutant in human NCI-H2030 cells assessed as maximal KRAS degradation at 3 uM after 24 hrs by Western blot analysis relative to control. (A western blot detects proteins with antibodies after separation by electrophoresis.)
The test system of assay [2] is NCI-H2030 [G12C]. Kind of assay: Protac activity at E3 ubiquitin ligase/KRAS G12C mutant in human NCI-H2030 cells assessed as maximal KRAS degradation at 1 uM after 24 hrs by Western blot analysis relative to control.
Assay [3] concerns NCI-H2030 [G12C]. Kind of assay: Protac activity at E3 ubiquitin ligase/KRAS G12C mutant in human NCI-H2030 cells assessed as maximal KRAS degradation at 0.3 uM after 24 hrs by Western blot analysis relative to control.

Molecules are shown by their SMILES.

Chain of NCI-H2030 [G12C] (as listed by the source, stated change not applied): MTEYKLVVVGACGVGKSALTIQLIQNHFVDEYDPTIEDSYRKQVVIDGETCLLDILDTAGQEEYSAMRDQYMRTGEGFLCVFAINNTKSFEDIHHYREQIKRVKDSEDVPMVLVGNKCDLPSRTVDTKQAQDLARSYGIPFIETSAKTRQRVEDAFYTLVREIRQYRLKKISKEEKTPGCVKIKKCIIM

The term Emax denotes the greatest response seen or fitted, relative to the assay's reference. For the compound `C=CC(=O)N1CCN(c2nc(NCCC(=O)N(C)CCOCCOCCOCCNc3cccc4c3C(=O)N(C3CCC(=O)NC3=O)C4=O)nc3c(F)c(-c4cc(O)cc5ccccc45)c(Cl)cc23)CC1` (stereo not drawn), the maximal response (Emax) in assay [1] is 25 to 50%; in assay [2], 25 to 50%; in assay [3], less than 25%.
Take `C=CC(=O)N1CCN(c2nc(NCCC(=O)N(C)CCOCCOCCOCC(=O)N[C@H](C(=O)N3C[C@H](O)C[C@H]3C(=O)N[C@@H](C)c3ccc(-c4scnc4C)cc3)C(C)(C)C)nc3c(F)c(-c4cc(O)cc5ccccc45)c(Cl)cc23)CC1`: the Emax in assay [1] is 25 to 50%; in assay [2], 25 to 50%; in assay [3] it was less than 25%.
With `C=CC(=O)N1CCN(c2nc(NCCC(=O)N(C)CCOCCOCCOCCOCCOCC(=O)N[C@H](C(=O)N3C[C@H](O)C[C@H]3C(=O)N[C@@H](C)c3ccc(-c4scnc4C)cc3)C(C)(C)C)nc3c(F)c(-c4cc(O)cc5ccccc45)c(Cl)cc23)CC1`, the figures for the maximal response (Emax) in assay [1], in assay [2] and in assay [3] were greater than 50%, greater than 50% and less than 25%, respectively.
Consider `CCC(=O)N1CCN(c2nc(NCCC(=O)N(C)CCOCCOCCOCCOCCOc3ccc4c(c3)CN(C3CCC(=O)NC3=O)C4=O)nc3c(F)c(-c4cc(O)cc5ccccc45)c(Cl)cc23)CC1` (stereo not drawn), for which the figures for the Emax in assay [1], in assay [2] and in assay [3] were 25 to 50%, 25 to 50% and less than 25%, respectively.
Consider `CCC(=O)N1CCN(c2nc(NCCC(=O)N(C)CCOCCOCCOCCOCC(=O)N[C@H](C(=O)N3C[C@H](O)C[C@H]3C(=O)N[C@@H](C)c3ccc(-c4scnc4C)cc3)C(C)(C)C)nc3c(F)c(-c4cc(O)cc5ccccc45)c(Cl)cc23)CC1`, for which the Emax in assay [1], in assay [2] and in assay [3] was less than 25% in each case.
Consider `C=CC(=O)N1CCN(c2nc(NCCC(=O)N(C)CCOCCOCCOCCOCC(=O)N[C@H](C(=O)N3C[C@H](O)C[C@H]3C(=O)N[C@@H](C)c3ccc(-c4scnc4C)cc3)C(C)(C)C)nc3c(F)c(-c4cc(O)cc5ccccc45)c(Cl)cc23)CC1`, for which the Emax in assay [1] was greater than 50%; in assay [2], greater than 50%; in assay [3] it was less than 25%.
